According to patent US9353116B2, “Methods and compositions for kinase inhibition” (THE REGENTS OF THE UNIVERSITY OF CALIFORNIA, priority 2010, dated 2016):

How the values were obtained:
[1] = molecular target: T1, WT c-Src (Gallus gallus (Chicken), UniProt P00523); test: In vitro kinase assay, WT c-Src; assay type: biochemical; conditions: inhibitor preincubated with Src ten minutes prior to addition of ATP; read-out: WT c-Src IC50
Protocol: (§1) In vitro kinase assays for c-Src variants were performed in 50 mM Tris (pH 8.0), 10 mM MgCl2 and 1 mg/mL BSA. When obtaining kinetic parameters (kcat, Km) kinase and peptide substrate (IYGEFKKK) (SEQ ID NO:51) concentrations were 2 nM and 500 μM, respectively, while ATP concentrations ranged from 2000-0.655 μM. Addition of nonradioactive ATP supplemented with ^32P ATP (3,000 Ci/mmol, NEN) was used to initiate kinase reactions. Time points were selected such that product formation never exceeded 10%. Reactions were quenched by spotting 3 μL quantities onto phosphocellulose sheets (P81, Whatman). Afterwards, the sheets were washed 3×5 minutes in 0.5% phosphoric acid and dried. Radioactivity was measured by phosphorimaging and recorded on a Typhoon fluorescence imager (Molecular Dynamics). Data were plotted as rate (min^−1) versus ATP concentration and fitted to the Michaelis-Menten equation, v=[(kcat)[S]]/(Km+[S]), using Kaleidagraph software (Synergy) to extract kinetic parameters. When obtaining IC50 values for the inhibitors, 2% (v/v) DMSO was included in kinase reactions. In these cases ATP, peptide, and enzyme concentrations were 15 nM, 100 μM and 5 nM, respectively, while inhibitor concentrations ranged from 10,000-0.610 nM. In all cases, a ten-minute preincubation step between the kinase and the inhibitor preceded addition of ATP and a fifteen-minute reaction. The data was fitted to a sigmoidal dose-response curve using Prism 4.0c (GraphPad Software) to obtain IC50 values.

[2] = molecular target: c-Src-ES2 (T338C/V323A) (Gallus gallus (Chicken), UniProt P00523, T338C/V323A); test: In vitro kinase assay, c-Src-ES2; assay type: biochemical
Protocol: as §1

[3] = molecular target: c-Src-ES3 (T338C/V323S) (Gallus gallus (Chicken), UniProt P00523, T338C/V323S); test: In vitro kinase assay, c-Src-ES3; assay type: biochemical
Protocol: as §1

[4] = molecular target: I338T v-Src (Rous sarcoma virus (strain H-19), UniProt P25020, I338T); assay type: cell-based
Protocol: Curr Biol 8(5):257-266. Cells were grown to 60-90% confluence in DMEM supplemented with fetal bovine serum (10%), penicillin ‘G’ (100 units/ml) and streptomycin sulfate (100 μg/ml) (PenStrep, UCSF Cell Culture Facility) prior to treatment with kinase inhibitors dissolved in DMSO (final DMSO concentration, 0.5%). Following 1 hour of incubation with inhibitors at 37° C., cells were harvested in lysis buffer (50 mM Tris (pH 7.4), 300 mM NaCl, 5 mM EDTA, 1% triton, 0.02% NaN3, 1× complete mini protease inhibitor (Roche), 1 mM PMSF, 1×PHOS-stop (Roche), 0.02 μM microcystin, 2 mM sodium orthovanadate), normalized for concentration and analyzed by Western blot for global phosphotyrosine levels (4G10, Millipore, 1:1000). Levels of β-actin (β-actin Antibody, Cell Signaling, 1:1000) and v-Src (Src 32G6 rabbit mAb, Cell Signaling, 1:1000) were ascertained by Western blot.
I338C (v-Src-ES1, SEQ ID NO:48), I338T (SEQ ID NO:49), I338G (v-Src-AS1, SEQ ID NO:50) and WT v-Src-transformed NIH-3T3 cell lines were generated. Unlike c-Src, v-Src is constitutively active and harbors an isoleucine gatekeeper. The I338T v-Src variant was generated for consistency with the in vitro c-Src studies. For each cell line, global levels of phosphotyrosine were analyzed (FIG. 7). […]

[5] = molecular target: T338C c-Src (Gallus gallus (Chicken), UniProt P00523, T338C); test: Gel filtration and kinetic assay, T338C c-Src; assay type: biochemical; conditions: 23 μM inhibitor, 25 minutes, then PD10 desalting
Protocol: (§2) Inhibitors (final concentration 23 μM) were incubated with c-Src variants (final concentration 11.5 μM) in kinase reaction buffer (50 mM Tris pH 8, 100 mM NaCl, 1 mM DTT, 5% glycerol, 5% DMSO) for 25 minutes at room temperature. The solutions (2.6 mL total) were then passed over PD10 desalting columns (GE Healthcare) using the kinase reaction buffer for elution. Src concentrations were calculated using the extinction coefficient for c-Src (51.140 mM^−1cm^−1) {Seeliger, 2005 #100}. Kinase assays were performed as described in the experimental section at a final enzyme concentration of 10 nM.

[6] = molecular target: T1, WT c-Src; test: Gel filtration and kinetic assay, WT c-Src; assay type: biochemical; conditions: 23 μM inhibitor, 25 minutes, then PD10 desalting
Protocol: as §2

[7] = tested on: 307 kinases; test: Kinome-wide profiling (SelectScreen Kinase Profiling Service); assay type: biochemical; conditions: compounds at 1 μM, ATP at Km,app
Protocol: The percent inhibition results in FIG. were generated with biochemical enzymatic kinase assays using the SelectScreen® Kinase Profiling Service (Life Technologies Corporation, Madison, Wis.). Compounds were assayed at 1 μM at an ATP concentration equal to the ATP Km,app for the assay following the detailed procedures described in the SelectScreen® Customer Protocol and Assay Conditions documents located at www.invitrogen.com/kinaseprofiling.
Compounds that were profiled include, but are not limited to, 3, 4, 9, 13, and 20. […] The exocyclic amine mimics N6 of ATP and plays an important role in a hydrogen bonding interaction with the hinge region of kinases.

CC(C)n1nc(Cc2cccc(C(=O)CF)c2)c2c(N)ncnc21 [Compound 13, 1-(3-((4-amino-1-isopropyl-1H-pyrazolo[3,4-d]pyrimidin-3-yl)methyl)phenyl)-2-fluoroethanone]
IC50 [1]: > 5000 nM | IC50 ([2]; ES2 = T338C/V323A, read-out: c-Src variant IC50 (nM) ES2): 67 nM | change of inhibitor potency upon second-site Val323 mutations ([2]; c-Src-ES2 and c-Src-ES3 relative to c-Src-ES1): Enhanced inhibitor potency | fold increase in potency with V323A mutation ([2]; c-Src-ES2 relative to c-Src-ES1): 5 fold | IC50 ([3]; ES3 = T338C/V323S, read-out: c-Src variant IC50 (nM) ES3): 29 nM | fold improvement in potency with V323S mutation ([3]; c-Src-ES3 relative to c-Src-ES1): 12 fold | inhibition of I338T v-Src in cells (global phosphotyrosine levels) [4]: neither 9 nor 13 inhibited I338T v-Src | inhibitory activity after gel filtration, T338C c-Src [5]: retained | inhibitory activity after gel filtration, WT c-Src [6]: lost | off-target profile in kinome-wide screen [7]: clean profile
